Reference: ChEMBL document CHEMBL1201862, “PubChem BioAssay data set” (2004)
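These data come from cells grown in 96-well plates and exposed to compound for 48 hours at five concentrations. The concentration for 50% growth inhibition is given as GI50.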 Calls of active or inactive are those of the source. No stated cut-off is given here; in the data, active = GI50 up to about 1.1 µM and inactive = higher.

Experiments:
Assay in all cases: inhibition of tumour cell growth, NCI panel, 48 h
Malme-3M = tested on: Malme-3M
OVCAR-4 = tested on: OVCAR-4
A549 = tested on: A549
MDA-MB-231 = tested on: MDA-MB-231
M14 = tested on: M14
ACHN = tested on: ACHN
SK-MEL-2 = tested on: SK-MEL-2
UACC-257 = tested on: UACC-257
HT-29 = tested on: HT-29
SW-620 = tested on: SW-620
NCI-H522 = tested on: NCI-H522
A498 = tested on: A498
SNB-19 = tested on: SNB-19
SK-OV-3 = tested on: SK-OV-3
SN12C = tested on: SN12C
MCF7 = tested on: MCF7
DU-145 = tested on: DU-145
HOP-92 = tested on: HOP-92
HCT-116 = tested on: HCT-116
786-0 = tested on: 786-0
KM12 = tested on: KM12
RPMI-8226 = tested on: RPMI-8226
T47D = tested on: T47D
OVCAR-8 = tested on: OVCAR-8
IGROV-1 = tested on: IGROV-1
EKVX = tested on: EKVX
SK-MEL-5 = tested on: SK-MEL-5
NCI/ADR-RES = tested on: NCI/ADR-RES
TK-10 = tested on: TK-10
HCT-15 = tested on: HCT-15
Hs-578T = tested on: Hs-578T
OVCAR-5 = tested on: OVCAR-5
MDA-N = tested on: MDA-N
NCI-H23 = tested on: NCI-H23
U-251 = tested on: U-251
UO-31 = tested on: UO-31
CCRF-CEM = tested on: CCRF-CEM
CAKI-1 = tested on: CAKI-1
SNB-75 = tested on: SNB-75
SK-MEL-28 = tested on: SK-MEL-28
OVCAR-3 = tested on: OVCAR-3
PC-3 = tested on: PC-3
K562 = tested on: K562
UACC-62 = tested on: UACC-62
LOX IMVI = tested on: LOX IMVI
COLO 205 = tested on: COLO 205
SF-295 = tested on: SF-295
NCI-H460 = tested on: NCI-H460
HCC 2998 = tested on: HCC 2998
NCI-H226 = tested on: NCI-H226
BT-549 = tested on: BT-549
MDA-MB-435 = tested on: MDA-MB-435
SF-268 = tested on: SF-268
HOP-62 = tested on: HOP-62
RXF 393 = tested on: RXF 393

CN(CCc1ccccn1)c1ccc2c(c1)C(=O)c1ccccc1-2
GI50 (Malme-3M): > 100 µM (inactive) | GI50 (OVCAR-4): 69.5 µM (inactive) | GI50 (A549): 14.4 µM (inactive) | GI50 (MDA-MB-231): > 100 µM (inactive) | GI50 (M14): > 100 µM (inactive) | GI50 (ACHN): > 100 µM (inactive) | GI50 (SK-MEL-2): 28.5 µM (inactive) | GI50 (UACC-257): 54.6 µM (inactive) | GI50 (HT-29): 66.4 µM (inactive) | GI50 (SW-620): > 100 µM (inactive) | GI50 (NCI-H522): 71.1 µM (inactive) | GI50 (A498): 35.2 µM (inactive) | GI50 (SNB-19): 88.9 µM (inactive) | GI50 (SK-OV-3): > 100 µM (inactive) | GI50 (SN12C): 53.8 µM (inactive) | GI50 (MCF7): > 100 µM (inactive) | GI50 (DU-145): > 100 µM (inactive) | GI50 (HOP-92): 15.2 µM (inactive) | GI50 (HCT-116): > 100 µM (inactive) | GI50 (786-0): 41.3 µM (inactive) | GI50 (KM12): > 100 µM (inactive) | GI50 (RPMI-8226): 38.3 µM (inactive) | GI50 (T47D): 73.8 µM (inactive) | GI50 (OVCAR-8): 99.1 µM (inactive) | GI50 (IGROV-1): > 100 µM (inactive) | GI50 (EKVX): 18.5 µM (inactive) | GI50 (SK-MEL-5): 35.1 µM (inactive) | GI50 (NCI/ADR-RES): > 100 µM (inactive) | GI50 (TK-10): > 100 µM (inactive) | GI50 (HCT-15): 23 µM | GI50 (Hs-578T): 73.3 µM (inactive) | GI50 (OVCAR-5): > 100 µM (inactive) | GI50 (MDA-N): 64.9 µM (inactive) | GI50 (NCI-H23): > 100 µM (inactive) | GI50 (U-251): 43.3 µM (inactive) | GI50 (UO-31): > 100 µM (inactive) | GI50 (CCRF-CEM): > 100 µM (inactive) | GI50 (CAKI-1): > 100 µM (inactive) | GI50 (SNB-75): 99.1 µM (inactive) | GI50 (SK-MEL-28): > 100 µM (inactive) | GI50 (OVCAR-3): > 100 µM (inactive) | GI50 (PC-3): > 100 µM (inactive) | GI50 (K562): 51.8 µM (inactive) | GI50 (UACC-62): 46.1 µM (inactive) | GI50 (LOX IMVI): > 100 µM (inactive) | GI50 (COLO 205): 35.5 µM (inactive) | GI50 (SF-295): 91.4 µM (inactive) | GI50 (NCI-H460): 9.68 µM (inactive) | GI50 (HCC 2998): > 100 µM (inactive) | GI50 (NCI-H226): 40.6 µM (inactive) | GI50 (BT-549): 78.9 µM (inactive) | GI50 (MDA-MB-435): > 100 µM (inactive) | GI50 (SF-268): > 100 µM (inactive) | GI50 (HOP-62): > 100 µM (inactive) | GI50 (RXF 393): > 100 µM (inactive)
